Results reported in patent US7910111B2, “Inhibitors of N-ethylmaleimide sensitive factor” (The Johns Hopkins University, priority 2003, dated 2011).
No end group written: not given here.

How the values were obtained:
mice [1] = experiment: bleeding time in mice after tail amputation (Example 1); type: in vivo; conditions: intravenous; for effect on bleeding time: tail amputated after 45 min
Procedure: To explore the physiological relevance of NSF regulation of Weibel-Palade body exocytosis, the effect of the NSF inhibitory peptide upon the bleeding time in mice was measured. Anesthetized mice were injected intravenously with saline, TAT-NSF222, or the control peptide TAT-NSF222scr; and after 45 min the distal 5 mm of tail was amputated and the bleeding time measured. […] In fact, 3 of the 6 mice treated with the TAT-NSF222 peptide had bleeding times in excess of 20 min.
Measurement of bleeding time in mice was performed as previously described (Weiss et al., 2002). Mice were anesthetized with an intramuscular injection of ketamine and xylazine, and 5 mm of the distal tip of the tail was amputated. The tail was blotted with filter paper every 5 sec until the paper was no longer stained. If the animals bled for 20 min, the experiment was stopped, and the bleeding time was recorded as 20 min.

[2] = tested on: human aortic endothelial cells (HAEC); conditions: for effect of peptide on thrombin induced vWF release: HAEC incubated 20 min with peptide; for effect on thrombin stimulated vWF release: HAEC pre-treated with reagent, thrombin 1 U/ml 1 h; for effect on thrombin induced vWF release, dose response: HAEC pre-treated with increasing amounts, DEA-NONOate 10 min, DETA-NONOate 16 h, SNAP 6 h, NEM 1 h, L-NAME 16 h
Procedure: To explore the effect of NO upon granule exocytosis, thrombin induced exocytosis of Weibel-Palade bodies from human aortic endothelial cells (HAEC) which release von Willebrand's Factor (vWF) was studied. HAEC was pre-treated with an NO donor 2-(N,N-diethylamino)-diazenolate-2-oxide (DEA-NONOate) 10 mM or with DEA as a control, stimulated the cells with thrombin 1 U/ml for 1 h, and the amount of vWF released into the media was then measured. […] HAEC was then pre-treated with increasing amounts of various NO donors, including a rapidly releasing NO donor DEA-NONOate for 10 min, a slowly releasing NO donor DETA-NONOate for 16 h, or a nitrosothiol S-nitroso-penicillamine (SNAP) for 6 h; alternatively, cells were treated with NEM for 1 h.
The role of endogenous NO in the regulation of Weibel-Palade body exocytosis was then explored. HAEC was pre-treated with L-NAME for 16 h in order to inhibit endogenous NOS, and then the cells were stimulated with 1 U/ml thrombin for 1 h and vWF release was measured. […] HAEC was next pre-treated with vascular endothelial growth factor (VEGF) in order to activate endogenous NOS3. Cells were incubated with 50 ng/ml VEGF or control for 2 h, and then stimulated with thrombin.
A peptide inhibitor of NSF that crosses cell membranes was designed. This peptide, designated TAT-NSF222, includes the protein transduction domain of HIV TAT (residues 47-57) previously shown to transduce polypeptides into cells (Becker-Hapak et al., 2001), fused to a fragment of NSF (residues 222-243) previously shown to inhibit NSF (Schweizer et al., 1998). […] HAEC were then incubated for 20 min with TAT-NSF222, or with a control peptide TAT-NSF222scr that consisted of the intact TAT domain followed by the amino acid residues of NSF 222-243 in a scrambled order. HAEC were transduced with TAT-NSF peptides, treated with media or thrombin, and the amount of vWF released into the media was measured by ELISA.
Since NSF plays a general role in vesicle trafficking, permanent inactivation of NSF would slow vesicular trafficking in general. However, local production of NO at the plasma membrane and reversible nitrosylation of NSF could provide spatial regulation of NSF.
Human aortic endothelial cells (HAEC) and EGM-2 media were obtained from Clonetics (Walkersville, Md.). HAEC were pre-treated with NO donors, washed, stimulated with 1 U/mil of thrombin, and the amount of vWF released into the media was measured by an ELISA (American Diagnostica, Greenwich, Conn.). HAEC were permeabilized by incubation with 10 U/well of SLO (Sigma) in PBS pH 7.4 for 15 min at 37° C. (Walev et al., 2001). Some cells were incubated with 20-200 μg/ml of antibodies or with 100 μg/ml of recombinant NSF. Cells were then resealed by incubation with EGM-2 media for 4 h at 37° C., washed with EGM-2 media, and stimulated with thrombin as above.
The ability of TAT-NSF to affect exocytosis from cells was investigated. Endothelial cells release vWF by exocytosis when stimulated by thrombin. Accordingly, endothelial cells were incubated with increasing amounts of TAT-NSF peptides for 20 min, then treated with 1 U/ml thrombin, and the amount of vWF released into the media was measured by ELISA.
Human aortic endothelial cells (HAEC) and EGM-2 media were obtained from Clonetics (Walkersville, Md.). HAEC were pre-treated with TAT-NSF peptides for 20 min, washed, stimulated with 1 U/ml of thrombin, and the amount of vWF released into the media was measured by an ELISA (American Diagnostica, Greenwich, Conn.).

recombinant NSF = biological target: T1, recombinant NSF (Cricetulus griseus, UniProt P18708); experiment: NSF ATPase assay (coupled colorimetric assay); type: biochemical
T1 construct: RGS-(His)6 (N); made in house; host or cells: bacteria
Procedure: The effect of NO upon NSF activity was next explored, since NO inhibits Weibel-Palade body exocytosis, and since NSF regulates Weibel-Palade body exocytosis. The effect of NO upon the ATPase activity of NSF was first examined. DEA-NONOate was added to recombinant NSF, and the ATPase activity of NSF was measured.
(§1) The ATPase activity of NSF was measured by a coupled assay, in which ATP utilization is linked to the pyruvate kinase reaction, which generates pyruvate, which in turn is measured continuously with lactate dehydrogenase (Huang and Hackney, 1994). Recombinant NSF (0.2 μg/μl) was pre-treated with buffer or DEA or DEA-NONOate or NEM for 10 min at 22° C. ATPase reaction buffer (100 mM HEPES buffer, pH 7.0, 100 mM KCl, 10 mM MgCl2, 5 mM CaCl2, 10 mM ATP, 5 mM phosphoenol pyruvate, 50 U lactate dehydrogenase, and 50 U pyruvate kinase) was added to the mixture, followed by 10 μl of NADH (2 mg/ml in 1% sodium bicarbonate). The mixture was incubated for 10 min at 22° C., and the absorbance was measured at 340 nm.
The effect of the TAT-NSF peptide inhibitors upon the ability of NSF to hydrolyze ATP was measured. 10 μM TAT-NSF peptides was added to recombinant NSF, and the hydrolysis of ATP was measured. All 5 TAT-NSF peptides inhibited NSF ATPase activity (FIG. 8A). […] The effects of TAT-NSF81 (SEQ ID NO: 6) upon NSF were further defined. TAT-NSF81 (SEQ ID NO: 6) inhibits NSF ATPase activity in a dose-dependent manner with an IC50% between 1-10 μM (FIG. 8B).
as §1, with “TAT-NSF peptides” for “DEA or DEA-NONOate or NEM”

mice [3] = experiment: myocardial infarction (coronary ligation/reperfusion) in mice; type: in vivo
Procedure: The ability of the fusion peptides of the present invention to impact cardiac infraction was investigated. Mice were pre-treated intravenously with vehicle or 5 ug/mouse TAT-NSF700 (SEQ ID NO: 8) peptide 15 min prior to infarction. Myocardial infarctions were created in mice by ligation of the left anterior descending coronary artery. Myocardial ischemia was maintained for 35 minutes, and then the ligation of the coronary artery was released, and reperfusion continued for 24 h.
The mice were then sacrificed and the size of the myocardial infarction was quantitated as previously done (Jones S P, Greer J J, Kakkar A K, Ware P D, Turnage R H, Hicks M, van Haperen R, de Crom R, Kawashima S, Yokoyama M, Lefer D J. Am J Physiol Heart Circ Physiol. 2004 January; 286(1):H276-82. Epub 2003 Sep. 11.). The area at risk (AAR) was measured with Evans blue dye, the left ventricle (LV) area was measured by planimetery, and the infarct area (INF) was measured with TTC staining. There were 7 mice per group.

mice [4] = experiment: platelet adherence to mesenteric venules in mice (intravital microscopy); type: in vivo
Procedure: To further examine the physiological relevance of NO regulation of Weibel-Palade body exocytosis, the effect of endogenous NO upon platelet interactions with endothelial cells in vivo was measured. Platelet rolling, or transient adherence of platelets to the walls of blood vessels, is mediated by vWF released by exocytosis (Andre et al., 2000). Inhibition of endogenous NO synthesis might permit an increase in Weibel-Palade body exocytosis, an increase in released vWF, and an increase in platelet adherence to venule walls. […] Intravital microscopy was next employed to explore the effects of endogenous NO upon platelet rolling in vivo. Anesthetized mice were pre-treated or not with L-NAME, and then transfused with calcein-AM labeled platelets. The mesentery was externalized, superfused with histamine, and intravital microscopy was used to record interactions of fluorescently labeled platelets with mesenteric venules. Platelets were classified as adherent if they were transiently captured by the endothelium and then translocated in a stop-and-go fashion for a minimum of 2 seconds. […]
Measurements of platelet adherence in mice was adapted from Andre et al. (Andre et al., 2000). […] Platelet adherence was expressed as the number of adhering fluorescent cells per square millimeter of venular surface, calculated from the diameter and length of segment viewed.

[5] = biological target: T2, NSF disassembly of the SNARE complex (Cricetulus griseus, UniProt P18708); type: biochemical; conditions: recombinant NSF, α-SNAP, GST-SNAREs, ATP; TAT-NSF peptides 1 μM in Example 2
T2 construct: made in house; host or cells: bacteria (NSF, alpha-SNAP); BL21 cells (GST-SNAREs)
T2 sequence (P18708 whole entry): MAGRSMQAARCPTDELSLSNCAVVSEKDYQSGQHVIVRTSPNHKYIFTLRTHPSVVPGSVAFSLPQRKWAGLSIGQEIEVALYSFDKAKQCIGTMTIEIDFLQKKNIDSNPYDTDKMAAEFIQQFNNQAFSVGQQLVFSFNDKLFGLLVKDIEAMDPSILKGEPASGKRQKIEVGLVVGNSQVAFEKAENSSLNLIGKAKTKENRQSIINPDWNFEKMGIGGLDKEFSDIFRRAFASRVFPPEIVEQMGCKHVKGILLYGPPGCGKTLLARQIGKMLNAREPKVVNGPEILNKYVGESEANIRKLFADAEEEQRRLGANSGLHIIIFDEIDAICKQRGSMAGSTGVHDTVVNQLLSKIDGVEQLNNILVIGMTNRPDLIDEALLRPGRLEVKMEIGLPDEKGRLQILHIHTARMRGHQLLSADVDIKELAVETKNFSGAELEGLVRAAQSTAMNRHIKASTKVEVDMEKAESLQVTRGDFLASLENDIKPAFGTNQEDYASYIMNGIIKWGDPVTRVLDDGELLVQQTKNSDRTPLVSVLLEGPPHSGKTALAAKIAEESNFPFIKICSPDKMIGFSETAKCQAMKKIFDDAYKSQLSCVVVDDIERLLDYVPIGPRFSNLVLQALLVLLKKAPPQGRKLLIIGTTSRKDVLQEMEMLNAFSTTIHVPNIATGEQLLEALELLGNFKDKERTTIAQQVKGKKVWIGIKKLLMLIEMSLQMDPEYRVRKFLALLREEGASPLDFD
T2 sequence (P81125 whole entry partner): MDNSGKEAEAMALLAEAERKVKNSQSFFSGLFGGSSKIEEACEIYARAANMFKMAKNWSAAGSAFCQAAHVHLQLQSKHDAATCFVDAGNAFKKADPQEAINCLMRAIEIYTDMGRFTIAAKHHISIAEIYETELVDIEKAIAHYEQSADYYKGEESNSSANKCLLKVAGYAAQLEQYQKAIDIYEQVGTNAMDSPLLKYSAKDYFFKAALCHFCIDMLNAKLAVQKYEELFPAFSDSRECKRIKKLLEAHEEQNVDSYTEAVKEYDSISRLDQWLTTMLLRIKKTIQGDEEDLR
T2 sequence (Q12846 whole entry partner): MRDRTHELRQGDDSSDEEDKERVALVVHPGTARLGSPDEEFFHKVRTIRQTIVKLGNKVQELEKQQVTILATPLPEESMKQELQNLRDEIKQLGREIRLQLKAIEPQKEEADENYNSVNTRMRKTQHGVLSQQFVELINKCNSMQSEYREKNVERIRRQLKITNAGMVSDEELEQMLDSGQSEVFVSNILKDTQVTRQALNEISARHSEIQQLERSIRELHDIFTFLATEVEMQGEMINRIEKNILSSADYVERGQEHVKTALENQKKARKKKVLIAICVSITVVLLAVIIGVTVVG
T2 sequence (Q15836 whole entry partner): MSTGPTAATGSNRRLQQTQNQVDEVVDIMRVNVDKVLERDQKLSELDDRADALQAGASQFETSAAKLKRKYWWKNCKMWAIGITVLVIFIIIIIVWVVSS
T2 sequence (O00161 whole entry partner): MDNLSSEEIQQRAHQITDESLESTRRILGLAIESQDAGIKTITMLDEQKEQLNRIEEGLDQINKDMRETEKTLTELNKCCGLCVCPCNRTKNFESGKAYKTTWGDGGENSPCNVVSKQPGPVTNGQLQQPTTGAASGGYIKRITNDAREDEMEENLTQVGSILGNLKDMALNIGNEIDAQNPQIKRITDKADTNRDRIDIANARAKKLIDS
Procedure: Accordingly, recombinant NSF was pre-treated with the NO donor DEA-NONOate 1 mM for 10 min. Pre-treated NSF, α-SNAP, and detergent extracts of HAEC membranes were then mixed in the presence of 0.5 mM ATP or ATP-γS. These reactions were then fractionated by sucrose density gradient ultracentrifugation, fractions were collected from the bottom of the tube, and immunoblotted with antibody to syntaxin-4.
The effect of NO upon NSF disassembly of purified, recombinant SNARE molecules was next examined. Recombinant (His)6-NSF was pre-treated or not with 1 mM DEA-NONOate for 10 min, and then mixed with and (His)6-a-SNAP and recombinant SNARE fusion polypeptides identified in endothelial cells: GST-syntaxin-4, VAMP-3, and SNAP-23. ATP or ATP-γS was added, the mixture was precipitated with glutathione-sepharose beads, and precipitated proteins were fractionated by SDS-PAGE and immunoblotted with antibody to the NSF tag.
The disassembly activity of NSF was measured by a co-precipitation assay (Pevsner et al., 1994). […] This mixture of NSF and SNARE polypeptides was then incubated in binding buffer (4 mM HEPES pH 7.4, 0.1M NaCl, 1 mM EDTA, 3.5 mM CaCl2, 3.5 mM MgCl2, and 0.5% Nonidet P-40) and glutathione-sepharose beads for 1 h at 4° C. with rotation. The beads were washed with binding buffer 4 times, mixed with SDS-PAGE sample buffer, boiled for 3 min, and analyzed by immunoblotting.
The effect of the TAT-NSF peptide inhibitors upon the ability of NSF to separate from SNARE complexes was measured. Recombinant NSF was pre-treated with 1 μM TAT-NSF peptides, and recombinant GST-SNARE polypeptides were then added, including syntaxin-4, SNAP-23, and VAMP-3. […]
The effect of TAT-NSF peptides on NSF disassembly activity was determined. […]
TAT-NSF81 (SEQ ID NO: 6) inhibition of NSF disassembly activity was also investigated. […] ATP was added, GST-SNAREs were precipitated with glutathione-sepharose, and the precipitant was analyzed for the co-precipitation of NSF.
The disassembly activity of NSF was measured by a co-precipitation assay (Pevsner et al., 1994). […]

T1 sequence (P18708 whole entry): as the sequence (P18708 whole entry) above

For “YGRKKRRQRRR-GGG-ENSFRFLADIFPAKAFPVRFE (YGRKKRRQRRRGGGENSFRFLADIFPAKAFPVRFE; fusion peptide) [TAT-NSF222scr]”, the “effect on bleeding time” value (mice [1]) was “has no effect upon bleeding time”.

Work on “YGRKKRRQRRRGGGALYSFDKAKQCIGTMTIEID [TAT-NSF81]” yielded an IC50 ([2]; read-out: IC50% for inhibition of endothelial exocytosis (vWF release), HAEC, 20 min pre-treatment, thrombin 1 U/ml) of 1 to 10 µM and an IC50 (recombinant NSF) of 1 to 10 µM.

“YGRKKRRQRRR-GGG-LLDYVPIGPRFSNLVLQALLVL (YGRKKRRQRRRGGGLLDYVPIGPRFSNLVLQALLVL; fusion peptide) [TAT-NSF700]” was tested, and the “size of the infarct” value (mice [3]; mice, 5 ug/mouse i.v. 15 min prior to infarction, 35 min ischemia, 24 h reperfusion) was 44%+/−3, the “absolute reduction in infarct size” value (mice [3]; vs vehicle treated mice) was 12% and the “relative reduction in infarct size” value (mice [3]; vs vehicle treated mice) was 21%. The “effect of peptide on thrombin induced vWF release” value [2] was “most effective at inhibiting release of vWF” and the “effect on NSF ATPase activity at 10 μM peptide” value (recombinant NSF; 10 μM TAT-NSF peptides, recombinant NSF) was “more effective than the other peptides”.

In the case of `CC(=N)NCc1cccc(CN)c1` [1400W], the “effect on thrombin stimulated vWF release” value [2] is reported as “had no effect”.

`COC(=O)[C@@H](N)CCCNC(=N)N[N+](=O)[O-]` [L-NAME, L-nitroarginine-methyl-ester] was tested, and the “histamine induced platelet interactions with the venule wall, frequency vs non-treated mice” value (mice [4]; 5 mg/kg L-NAME intravenously, histamine superfusion) was “more than double”, the “time of peak platelet-venule interactions after histamine treatment” value (mice [4]; L-NAME pre-treated) was 6 min and the “effect on thrombin induced vWF release, dose response” value (shortened to “effect … dose response”) [2] was “increases thrombin stimulated vWF release in a dose-dependent manner”. The “effect on thrombin stimulated vWF release” value [2] was “increases the amount of vWF released” and the “effect on VEGF inhibition of thrombin stimulated vWF release” value ([2]; L-NAME 1 mM, VEGF 50 ng/ml 2 h) was “blocks the effects of VEGF treatment”.

In the case of `CCN1C(=O)C=CC1=O` [NEM], the “effect … dose response” value [2] is reported as “inhibits thrombin induced vWF release”.

In the case of “YGRKKRRQRRR-GGG-GLDKEFNSIFRRAFASRVFPPE (YGRKKRRQRRRGGGGLDKEFNSIFRRAFASRVFPPE; fusion peptide) [TAT-NSF222]”, the “effect on NSF disassembly activity” value [5] is reported as “also NSF disassembly activity”, the “effect of peptide on thrombin induced vWF release” value [2] is reported as “inhibits vWF release in a dose-dependent manner” and the “mice with bleeding times in excess of 20 min” value (mice [1]; 45 min) is reported as 3 of the 6. For the same compound, the “effect on bleeding time” value (mice [1]) was “dramatically prolongs the bleeding time” and the “effect on NSF ATPase activity” value (recombinant NSF; recombinant NSF) was “inhibits both NSF ATPase activity”.

For `NCCN(CCN)/[N+]([O-])=N/O` [DETA-NONOate, dithylenetriamine (DETA)-NONOate], the “effect … dose response” value [2] was “inhibits thrombin induced vWF release”.

In the case of “vascular endothelial growth factor [VEGF]”, the “effect on thrombin stimulated vWF release” value [2] is reported as “decreases thrombin stimulated vWF release”.
